From patent US11613531B2, “Inhibitors of RHO associated coiled-coil containing protein kinase” (Kadmon Corporation, LLC, priority 2017, dated 2023)

These compounds were tested against Recombinant ROCK2 (amino acids 1-552) (Homo sapiens (Human), UniProt O75116) (assay: Z′-Lyte kinase assay, ROCK2). Settings: 3 μM compound; read-out: ROCK2 % inh. @ [conc].
Format: biochemical
Method in brief: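 IC50s derive from nonlinear curve fits over a 9-point, 2-fold dilution series, with single-point inhibition at 1 μM expressed relative to DMSO. Activity of truncated human ROCK1 (residues 1-535) and ROCK2 (residues 1-552) measured with the Z′-Lyte kinase format.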

Recombinant ROCK2 (amino acids 1-552), sequence (O75116 1-552): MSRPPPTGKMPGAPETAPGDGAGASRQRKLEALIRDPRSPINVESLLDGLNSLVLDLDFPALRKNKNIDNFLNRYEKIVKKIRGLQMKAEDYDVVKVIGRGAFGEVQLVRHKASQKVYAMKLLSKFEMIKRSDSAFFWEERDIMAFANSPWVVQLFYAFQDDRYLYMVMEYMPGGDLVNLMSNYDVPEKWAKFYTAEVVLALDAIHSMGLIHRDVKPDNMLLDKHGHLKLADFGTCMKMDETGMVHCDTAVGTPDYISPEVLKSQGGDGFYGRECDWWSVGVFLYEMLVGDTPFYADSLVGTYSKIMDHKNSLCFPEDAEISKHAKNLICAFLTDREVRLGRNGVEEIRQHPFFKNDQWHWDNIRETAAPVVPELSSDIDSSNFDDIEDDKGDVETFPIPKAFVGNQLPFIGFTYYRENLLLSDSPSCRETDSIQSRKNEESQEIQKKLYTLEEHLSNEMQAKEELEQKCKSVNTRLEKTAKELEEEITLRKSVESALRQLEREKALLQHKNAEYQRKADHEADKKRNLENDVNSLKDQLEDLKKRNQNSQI

Row | Structure (SMILES) | inhibition at 3 µM [%]
1 | Cc1cc(Nc2ccc(-c3ccncc3)cc2)nc(N2CCNC(C)CC2)n1 (stereo not drawn) [Example 245, 6-methyl-2-(5-methyl-1,4-diazepan-1-yl)-N-(4-(pyridin-4-yl)phenyl)pyrimidin-4-amine] | 100
2 | Cc1cc(Nc2ccc(-c3ccncc3)cc2)nc(N2CCCNC(C)C2)n1 (stereo not drawn) [Example 247, 6-methyl-2-(3-methyl-1,4-diazepan-1-yl)-N-(4-(pyridin-4-yl)phenyl)pyrimidin-4-amine] | 100

Same assay, conditions: 9 points 2-fold serial dilution

Row | Structure (SMILES) | IC50 [nM]
3 | c1ccc(C2CN(c3nccc(Nc4ccc5[nH]ncc5c4)n3)CCCN2)cc1 (stereo not drawn) [Example 64, N-(2-(3-phenyl-1,4-diazepan-1-yl)pyrimidin-4-yl)-1H-indazol-5-amine] | 240
4 | CC(C)C1CN(c2nccc(Nc3ccc4[nH]ncc4c3)n2)CCCN1 (stereo not drawn) [Example 65, N-(2-(3-isopropyl-1,4-diazepan-1-yl)pyrimidin-4-yl)-1H-indazol-5-amine] | 353
5 | Clc1cnc(N2CCNCC2)nc1Nc1ccc2[nH]ncc2c1 [Example 178, N-(5-chloro-2-(piperazin-1-yl)pyrimidin-4-yl)-1H-indazol-5-amine] | 159
6 | CCC1CNCCN1c1ncc(Cl)c(Nc2ccc3[nH]ncc3c2)n1 (stereo not drawn) [Example 187, N-(5-chloro-2-(2-ethylpiperazin-1-yl)pyrimidin-4-yl)-1H-indazol-5-amine] | 111
7 | CC1CNCCCN1c1nccc(Nc2ccc3[nH]ncc3c2)n1 (stereo not drawn) [Example 238, N-(2-(2-methyl-1,4-diazepan-1-yl)pyrimidin-4-yl)-1H-indazol-5-amine] | 17
8 | Cc1cc(Nc2ccc(-c3ccncc3)cc2)nc(N2CCNC(C)CC2)n1 (stereo not drawn) [Example 245, 6-methyl-2-(5-methyl-1,4-diazepan-1-yl)-N-(4-(pyridin-4-yl)phenyl)pyrimidin-4-amine] | > 1000
9 | Cc1cc(Nc2ccc(-c3ccncc3)cc2)nc(N2CCCNC(C)C2)n1 (stereo not drawn) [Example 247, 6-methyl-2-(3-methyl-1,4-diazepan-1-yl)-N-(4-(pyridin-4-yl)phenyl)pyrimidin-4-amine] | 407

What follows are compounds tested on ppMlc (T18/S19) levels in A7R5 cells (assay: A7R5 in-cell ELISA (pMLC)). Settings: Rattus norvegicus, A7R5, A7R5 cells, 10 μM compound; read-out: pMLC % inh A7R5 @ [conc].
Format: cell-based, Rat
Method in brief: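 Cellular IC50 came from a nonlinear regression fit of ppMlc (T18/S19) signal, read by colorimetric in-cell ELISA on fixed cells. Rat A7R5 aortic smooth muscle cells had been exposed for 90 min to compounds in 9-point 2-fold serial dilution, 24 h after seeding.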

Row | Structure (SMILES) | inhibition at 10 µM [%]
10 | c1ccc(C2CN(c3nccc(Nc4ccc5[nH]ncc5c4)n3)CCCN2)cc1 (stereo not drawn) [Example 64, N-(2-(3-phenyl-1,4-diazepan-1-yl)pyrimidin-4-yl)-1H-indazol-5-amine] | 63.9
11 | CC(C)C1CN(c2nccc(Nc3ccc4[nH]ncc4c3)n2)CCCN1 (stereo not drawn) [Example 65, N-(2-(3-isopropyl-1,4-diazepan-1-yl)pyrimidin-4-yl)-1H-indazol-5-amine] | 47.8
12 | Clc1cnc(N2CCNCC2)nc1Nc1ccc2[nH]ncc2c1 [Example 178, N-(5-chloro-2-(piperazin-1-yl)pyrimidin-4-yl)-1H-indazol-5-amine] | 47.5
13 | CCC1CNCCN1c1ncc(Cl)c(Nc2ccc3[nH]ncc3c2)n1 (stereo not drawn) [Example 187, N-(5-chloro-2-(2-ethylpiperazin-1-yl)pyrimidin-4-yl)-1H-indazol-5-amine] | 59.8
14 | CC1CNCCCN1c1nccc(Nc2ccc3[nH]ncc3c2)n1 (stereo not drawn) [Example 238, N-(2-(2-methyl-1,4-diazepan-1-yl)pyrimidin-4-yl)-1H-indazol-5-amine] | 70

Same assay, conditions: Rattus norvegicus, A7R5, A7R5 cells, ppMlc (T18/S19)

Row | Structure (SMILES) | IC50 [nM]
15 | c1ccc(C2CN(c3nccc(Nc4ccc5[nH]ncc5c4)n3)CCCN2)cc1 (stereo not drawn) [Example 64, N-(2-(3-phenyl-1,4-diazepan-1-yl)pyrimidin-4-yl)-1H-indazol-5-amine] | 1040
16 | CC(C)C1CN(c2nccc(Nc3ccc4[nH]ncc4c3)n2)CCCN1 (stereo not drawn) [Example 65, N-(2-(3-isopropyl-1,4-diazepan-1-yl)pyrimidin-4-yl)-1H-indazol-5-amine] | 1980
17 | Clc1cnc(N2CCNCC2)nc1Nc1ccc2[nH]ncc2c1 [Example 178, N-(5-chloro-2-(piperazin-1-yl)pyrimidin-4-yl)-1H-indazol-5-amine] | 706
18 | CCC1CNCCN1c1ncc(Cl)c(Nc2ccc3[nH]ncc3c2)n1 (stereo not drawn) [Example 187, N-(5-chloro-2-(2-ethylpiperazin-1-yl)pyrimidin-4-yl)-1H-indazol-5-amine] | 665
19 | CC1CNCCCN1c1nccc(Nc2ccc3[nH]ncc3c2)n1 (stereo not drawn) [Example 238, N-(2-(2-methyl-1,4-diazepan-1-yl)pyrimidin-4-yl)-1H-indazol-5-amine] | 215
20 | Cc1cc(Nc2ccc(-c3ccncc3)cc2)nc(N2CCNC(C)CC2)n1 (stereo not drawn) [Example 245, 6-methyl-2-(5-methyl-1,4-diazepan-1-yl)-N-(4-(pyridin-4-yl)phenyl)pyrimidin-4-amine] | 8220
21 | Cc1cc(Nc2ccc(-c3ccncc3)cc2)nc(N2CCCNC(C)C2)n1 (stereo not drawn) [Example 247, 6-methyl-2-(3-methyl-1,4-diazepan-1-yl)-N-(4-(pyridin-4-yl)phenyl)pyrimidin-4-amine] | 1960

The compounds below were run against Recombinant ROCK1 (amino acids 1-535) (Homo sapiens (Human), UniProt Q13464) (assay: Z′-Lyte kinase assay, ROCK1). Settings: 3 μM compound; read-out: ROCK1 % inh. @ [conc].
Recombinant ROCK1 (amino acids 1-535), sequence (Q13464 1-535): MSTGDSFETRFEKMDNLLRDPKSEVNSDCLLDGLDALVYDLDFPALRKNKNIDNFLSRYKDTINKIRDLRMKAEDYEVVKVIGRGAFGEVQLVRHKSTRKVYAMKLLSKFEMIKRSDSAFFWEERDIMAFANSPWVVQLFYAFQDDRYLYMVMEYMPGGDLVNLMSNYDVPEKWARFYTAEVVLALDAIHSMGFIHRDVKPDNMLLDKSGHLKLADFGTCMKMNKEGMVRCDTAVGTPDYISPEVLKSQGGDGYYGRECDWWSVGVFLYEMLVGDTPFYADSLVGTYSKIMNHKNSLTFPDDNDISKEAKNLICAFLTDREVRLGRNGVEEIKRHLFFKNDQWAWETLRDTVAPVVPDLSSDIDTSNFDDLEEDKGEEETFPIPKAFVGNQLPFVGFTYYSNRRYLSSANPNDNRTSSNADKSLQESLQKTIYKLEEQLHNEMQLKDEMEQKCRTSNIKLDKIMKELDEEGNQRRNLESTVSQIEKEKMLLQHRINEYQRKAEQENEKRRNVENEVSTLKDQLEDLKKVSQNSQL
Format: biochemical
Protocol: Determination of Compound's ROCK Inhibitory Activity In Vitro (Z'Lyte Assay).
Recombinant ROCK1 (amino acids 1-535) and ROCK2 (amino acids 1-552) proteins were purchased from ThermoFisher Scientific. Compound's activities were measured by Z′-lyte kinase kit (ThermoFisher Scientific) and IC50 was calculated
In vitro activities for the compounds were measured with Z′-lyte kinase kit (ThermoFisher Scientific). The percent inhibition rate was calculated by normalizing the kinase activity value obtained with 1 μM compound treatment against DMSO control value and then applied to the formula, [1-(compound/DMSO)]×100%. IC50s were calculated using the nonlinear regression curve fit function of the GraphPad Prism software with kinase activities data measured with 9 points 2-fold serial dilution of compounds treatment. In cell pMLC IC50s were calculated with data obtained from A7R5 cell experiments. A7R5 cells were treated with 9 points 2-fold serial dilution of compounds and ppMlc (T18/S19) levels were determined to calculate cellular IC50 values of the compounds using the nonlinear regression curve fit function of the GraphPad Prism software. NIH3T3 cells stably expressing ACTA2-promoter-driven-luciferase were applied to measure ROCK compounds functional IC50s in cells. Cells were plated in 96 well plates to confluence and treated with 9 points serial dilution of compounds in combination with TGFβ1 for 24 hr. Luciferase activities were measured and compound's IC50s were calculated using the nonlinear regression curve fit function of the GraphPad Prism software.

Row | Structure (SMILES) | inhibition at 3 µM [%]
22 | Cc1cc(Nc2ccc(-c3ccncc3)cc2)nc(N2CCNC(C)CC2)n1 (stereo not drawn) [Example 245, 6-methyl-2-(5-methyl-1,4-diazepan-1-yl)-N-(4-(pyridin-4-yl)phenyl)pyrimidin-4-amine] | 100
23 | Cc1cc(Nc2ccc(-c3ccncc3)cc2)nc(N2CCCNC(C)C2)n1 (stereo not drawn) [Example 247, 6-methyl-2-(3-methyl-1,4-diazepan-1-yl)-N-(4-(pyridin-4-yl)phenyl)pyrimidin-4-amine] | 100

Same assay, conditions: 9 points 2-fold serial dilution

Row | Structure (SMILES) | IC50 [nM]
24 | c1ccc(C2CN(c3nccc(Nc4ccc5[nH]ncc5c4)n3)CCCN2)cc1 (stereo not drawn) [Example 64, N-(2-(3-phenyl-1,4-diazepan-1-yl)pyrimidin-4-yl)-1H-indazol-5-amine] | 325
25 | CC(C)C1CN(c2nccc(Nc3ccc4[nH]ncc4c3)n2)CCCN1 (stereo not drawn) [Example 65, N-(2-(3-isopropyl-1,4-diazepan-1-yl)pyrimidin-4-yl)-1H-indazol-5-amine] | 98
26 | Clc1cnc(N2CCNCC2)nc1Nc1ccc2[nH]ncc2c1 [Example 178, N-(5-chloro-2-(piperazin-1-yl)pyrimidin-4-yl)-1H-indazol-5-amine] | 388
27 | CCC1CNCCN1c1ncc(Cl)c(Nc2ccc3[nH]ncc3c2)n1 (stereo not drawn) [Example 187, N-(5-chloro-2-(2-ethylpiperazin-1-yl)pyrimidin-4-yl)-1H-indazol-5-amine] | 58
28 | CC1CNCCCN1c1nccc(Nc2ccc3[nH]ncc3c2)n1 (stereo not drawn) [Example 238, N-(2-(2-methyl-1,4-diazepan-1-yl)pyrimidin-4-yl)-1H-indazol-5-amine] | 55
29 | Cc1cc(Nc2ccc(-c3ccncc3)cc2)nc(N2CCNC(C)CC2)n1 (stereo not drawn) [Example 245, 6-methyl-2-(5-methyl-1,4-diazepan-1-yl)-N-(4-(pyridin-4-yl)phenyl)pyrimidin-4-amine] | > 1000
30 | Cc1cc(Nc2ccc(-c3ccncc3)cc2)nc(N2CCCNC(C)C2)n1 (stereo not drawn) [Example 247, 6-methyl-2-(3-methyl-1,4-diazepan-1-yl)-N-(4-(pyridin-4-yl)phenyl)pyrimidin-4-amine] | 132
